PMC10583261 (CPT: Pharmacometrics & Systems Pharmacology, 2023)
≈ marks a conversion by molar mass, not a printed value. Where “and” joins values, the source holds several entries; their conditions need not be identical. Identical values can stand only once. Like-named read-outs stand apart in the source and are kept apart here.

Assays:
[1] = type: in vivo, human
[2] = ref data on file, cited from earlier work
[3] = weak-base compound; ref data on file; cited from earlier work
[4] = final population PK model, healthy subjects

N#Cc1ccc(N2CCN(Cc3ccc(COc4cccc5c4CN([C@H]4CCC(=O)NC4=O)C5=O)cc3)CC2)c(F)c1 [mezigdomide]
decrease in ka with high-fat meal ([1]; fed vs fasted, model-estimated): ~ 30%
increase in Tlag with high-fat meal ([1]; fed vs fasted, model-estimated): ~ 0.85 h
increase of relative oral bioavailability F with high-fat meal ([1]; fed vs fasted, model-estimated): ~ 30%
interindividual variability (IIV) of central volume of distribution V1 ([1]; final population PK model): 63% and 63.4%
interindividual variability (IIV) of clearance ([1]; final population PK model): 40% and 39.9% and ~ 40%
interindividual variability (IIV) of intercompartmental clearance ([1]; final population PK model): 26%
interindividual variability (IIV) of peripheral volume of distribution ([1]; final population PK model): 26%
interoccasion variability (IOV) of absorption rate constant ka ([1]; final population PK model): 65%
V1pop, distribution volume of the central compartment [1, 4]: 440 L
V2pop, distribution volume of the peripheral compartment [1, 4]: 243 L
dose-exposure relationship ([1]; healthy subjects, 0.4–3.2 mg): linear
absorption rate constant ([1]; population PK parameter, healthy subjects (abstract)): 1.18 h⁻¹
decrease in relative oral bioavailability F with PPI co-administration ([1]; rabeprazole vs no PPI, model-estimated): ~ 64%
Solubility ([2]; pH 1): 0.133 mg/mL (≈ 234 µM)
Solubility ([2]; pH 5): 0.001 mg/mL (≈ 1.76 µM)
decrease of solubility from pH 1 to pH 5 [2]: ~ 100 fold
dissociation constant [3]: 6
